This passage reports Activity results from ChEMBL document CHEMBL4330132, “5-Keto-3-cyano-2,4-diaminothiophenes as selective maternal embryonic leucine zipper kinase inhibitors” (Bioorg Med Chem Lett, 2019).

The structures appear in SMILES notation.

The target in test [1] is Atypical kinase COQ8A, mitochondrial (Homo sapiens) (UniProt Q8NI60). The test can be described thus: Binding affinity to wild-type human full length ADCK3 (M280 to Q647 residues) expressed in bacterial expression system assessed as residual binding level at 1 uM by Kinomescan method relative to control.
For test [2], the target named is Calcium/calmodulin-dependent protein kinase type II subunit alpha (Homo sapiens) (UniProt Q9UQM7). The test can be described thus: Binding affinity to wild-type human partial length CAMK2A (M1 to K328 residues) expressed in bacterial expression system assessed as residual binding level at 1 uM by Kinomescan method relative to control.
The target of test [3] is Tyrosine-protein kinase receptor Tie-1 (Homo sapiens) (UniProt P35590). The test can be described thus: Binding affinity to wild-type human partial length TIE1 (T819 to A1138 residues) expressed in bacterial expression system assessed as residual binding level at 1 uM by Kinomescan method relative to control.
Chain of Tyrosine-protein kinase receptor Tie-1 (Homo sapiens) (P35590 whole entry, the tested form may be a part): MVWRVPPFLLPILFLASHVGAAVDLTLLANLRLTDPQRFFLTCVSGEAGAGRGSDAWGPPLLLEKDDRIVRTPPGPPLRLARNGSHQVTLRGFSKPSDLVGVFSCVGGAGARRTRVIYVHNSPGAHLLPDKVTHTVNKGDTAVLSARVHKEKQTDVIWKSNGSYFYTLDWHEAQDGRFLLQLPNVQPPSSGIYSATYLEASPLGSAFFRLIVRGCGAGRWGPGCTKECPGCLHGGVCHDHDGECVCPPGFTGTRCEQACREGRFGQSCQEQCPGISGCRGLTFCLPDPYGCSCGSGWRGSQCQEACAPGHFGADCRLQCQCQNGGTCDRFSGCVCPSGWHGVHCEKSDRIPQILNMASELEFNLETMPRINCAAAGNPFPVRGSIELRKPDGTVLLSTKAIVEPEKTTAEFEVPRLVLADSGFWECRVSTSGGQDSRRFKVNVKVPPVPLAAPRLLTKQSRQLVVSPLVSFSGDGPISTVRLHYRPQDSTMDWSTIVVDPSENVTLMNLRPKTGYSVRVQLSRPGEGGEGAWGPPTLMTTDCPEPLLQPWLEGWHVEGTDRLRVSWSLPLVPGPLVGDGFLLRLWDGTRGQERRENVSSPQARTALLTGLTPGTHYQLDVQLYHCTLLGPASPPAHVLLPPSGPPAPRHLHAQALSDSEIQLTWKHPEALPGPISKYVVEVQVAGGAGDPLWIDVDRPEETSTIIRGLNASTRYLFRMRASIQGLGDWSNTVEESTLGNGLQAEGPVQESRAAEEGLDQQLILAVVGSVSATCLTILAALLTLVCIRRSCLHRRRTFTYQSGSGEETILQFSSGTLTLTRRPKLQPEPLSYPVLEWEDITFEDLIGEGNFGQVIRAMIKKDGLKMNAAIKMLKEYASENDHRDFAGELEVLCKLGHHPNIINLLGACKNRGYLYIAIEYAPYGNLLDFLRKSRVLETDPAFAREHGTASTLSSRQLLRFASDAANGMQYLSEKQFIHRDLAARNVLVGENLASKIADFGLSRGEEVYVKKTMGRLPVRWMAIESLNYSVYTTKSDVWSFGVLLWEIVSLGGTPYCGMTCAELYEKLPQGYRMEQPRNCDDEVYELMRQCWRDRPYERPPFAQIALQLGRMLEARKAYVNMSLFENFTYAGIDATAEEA
For test [4], the target named is Interferon-induced, double-stranded RNA-activated protein kinase (Homo sapiens) (UniProt P19525). The test can be described thus: Binding affinity to wild-type human partial length PRKR (F247 to C551 residues) expressed in bacterial expression system assessed as residual binding level at 1 uM by Kinomescan method relative to control.
In test [5] the test system is Receptor-type tyrosine-protein kinase FLT3 (Homo sapiens), P36888 [N841I]. The test can be described thus: Binding affinity to human partial length FLT3 N841I mutant (V592 to Y969 residues) expressed in bacterial expression system assessed as residual binding level at 1 uM by Kinomescan method relative to control.
In test [6] the target is Serine/threonine-protein kinase TAO1 (Homo sapiens) (UniProt Q7L7X3). The test can be described thus: Binding affinity to wild-type human partial length TAOK1 (M1 to A320 residues) expressed in mammalian expression system assessed as residual binding level at 1 uM by Kinomescan method relative to control.
Chain of Serine/threonine-protein kinase TAO1 (Homo sapiens) (Q7L7X3 whole entry, the tested form may be a part): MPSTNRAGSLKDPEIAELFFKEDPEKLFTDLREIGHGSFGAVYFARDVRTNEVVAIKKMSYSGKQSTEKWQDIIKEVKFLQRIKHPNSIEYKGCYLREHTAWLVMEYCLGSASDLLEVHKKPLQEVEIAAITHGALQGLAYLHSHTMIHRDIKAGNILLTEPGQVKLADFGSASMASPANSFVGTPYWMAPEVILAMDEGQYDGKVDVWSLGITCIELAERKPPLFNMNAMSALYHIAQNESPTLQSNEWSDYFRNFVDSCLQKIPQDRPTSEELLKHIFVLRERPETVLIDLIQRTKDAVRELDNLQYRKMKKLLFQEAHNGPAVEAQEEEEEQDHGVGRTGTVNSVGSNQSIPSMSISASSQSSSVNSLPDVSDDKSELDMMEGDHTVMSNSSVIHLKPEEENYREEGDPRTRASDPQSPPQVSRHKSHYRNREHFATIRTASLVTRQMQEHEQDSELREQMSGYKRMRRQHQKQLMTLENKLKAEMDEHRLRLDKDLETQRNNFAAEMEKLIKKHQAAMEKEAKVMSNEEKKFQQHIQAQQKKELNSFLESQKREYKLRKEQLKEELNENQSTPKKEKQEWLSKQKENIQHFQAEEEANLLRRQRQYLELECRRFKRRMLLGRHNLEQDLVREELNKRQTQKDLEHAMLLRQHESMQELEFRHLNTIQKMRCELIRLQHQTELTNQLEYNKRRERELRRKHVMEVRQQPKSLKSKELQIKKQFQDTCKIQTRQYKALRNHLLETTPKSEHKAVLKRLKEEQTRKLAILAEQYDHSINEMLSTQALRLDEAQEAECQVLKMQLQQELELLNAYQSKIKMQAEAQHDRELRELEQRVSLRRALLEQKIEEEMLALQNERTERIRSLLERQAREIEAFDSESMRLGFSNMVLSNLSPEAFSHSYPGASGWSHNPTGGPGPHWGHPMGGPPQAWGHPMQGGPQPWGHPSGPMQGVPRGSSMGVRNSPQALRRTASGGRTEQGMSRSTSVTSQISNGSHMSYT
The target of test [7] is Receptor tyrosine-protein kinase erbB-2 (Homo sapiens) (UniProt P04626). The test can be described thus: Binding affinity to wild-type human partial length ERBB2 (K646 to V1225 residues) expressed in mammalian expression system assessed as residual binding level at 1 uM by Kinomescan method relative to control.
Test [8] concerns the target Dual specificity protein kinase CLK1 (Homo sapiens) (UniProt P49759). The test can be described thus: Binding affinity to wild-type human full length CLK1 (M1 to I484 residues) expressed in bacterial expression system assessed as residual binding level at 1 uM by Kinomescan method relative to control.
Test [9] concerns the target 5'-AMP-activated protein kinase catalytic subunit alpha-2 (Homo sapiens) (UniProt P54646). The test can be described thus: Binding affinity to wild-type human partial length AMPK alpha2 (M1 to E306 residues) expressed in bacterial expression system assessed as residual binding level at 1 uM by Kinomescan method relative to control.
The target in test [10] is Death-associated protein kinase 3 (Homo sapiens) (UniProt O43293). The test can be described thus: Binding affinity to wild-type human partial length DAPK3 (M1 to A277 residues) expressed in bacterial expression system assessed as residual binding level at 1 uM by Kinomescan method relative to control.
Test [11] concerns Epidermal growth factor receptor (Homo sapiens), P00533 [UNDEFINED MUTATION]. The test can be described thus: Binding affinity to human partial length EGFR S752-I759del mutant expressed in bacterial expression system assessed as residual binding level at 1 uM by Kinomescan method relative to control.
Chain of Epidermal growth factor receptor (Homo sapiens), P00533 [UNDEFINED MUTATION] (P00533 whole entry, looked up, stated change not applied, the tested form may be a part): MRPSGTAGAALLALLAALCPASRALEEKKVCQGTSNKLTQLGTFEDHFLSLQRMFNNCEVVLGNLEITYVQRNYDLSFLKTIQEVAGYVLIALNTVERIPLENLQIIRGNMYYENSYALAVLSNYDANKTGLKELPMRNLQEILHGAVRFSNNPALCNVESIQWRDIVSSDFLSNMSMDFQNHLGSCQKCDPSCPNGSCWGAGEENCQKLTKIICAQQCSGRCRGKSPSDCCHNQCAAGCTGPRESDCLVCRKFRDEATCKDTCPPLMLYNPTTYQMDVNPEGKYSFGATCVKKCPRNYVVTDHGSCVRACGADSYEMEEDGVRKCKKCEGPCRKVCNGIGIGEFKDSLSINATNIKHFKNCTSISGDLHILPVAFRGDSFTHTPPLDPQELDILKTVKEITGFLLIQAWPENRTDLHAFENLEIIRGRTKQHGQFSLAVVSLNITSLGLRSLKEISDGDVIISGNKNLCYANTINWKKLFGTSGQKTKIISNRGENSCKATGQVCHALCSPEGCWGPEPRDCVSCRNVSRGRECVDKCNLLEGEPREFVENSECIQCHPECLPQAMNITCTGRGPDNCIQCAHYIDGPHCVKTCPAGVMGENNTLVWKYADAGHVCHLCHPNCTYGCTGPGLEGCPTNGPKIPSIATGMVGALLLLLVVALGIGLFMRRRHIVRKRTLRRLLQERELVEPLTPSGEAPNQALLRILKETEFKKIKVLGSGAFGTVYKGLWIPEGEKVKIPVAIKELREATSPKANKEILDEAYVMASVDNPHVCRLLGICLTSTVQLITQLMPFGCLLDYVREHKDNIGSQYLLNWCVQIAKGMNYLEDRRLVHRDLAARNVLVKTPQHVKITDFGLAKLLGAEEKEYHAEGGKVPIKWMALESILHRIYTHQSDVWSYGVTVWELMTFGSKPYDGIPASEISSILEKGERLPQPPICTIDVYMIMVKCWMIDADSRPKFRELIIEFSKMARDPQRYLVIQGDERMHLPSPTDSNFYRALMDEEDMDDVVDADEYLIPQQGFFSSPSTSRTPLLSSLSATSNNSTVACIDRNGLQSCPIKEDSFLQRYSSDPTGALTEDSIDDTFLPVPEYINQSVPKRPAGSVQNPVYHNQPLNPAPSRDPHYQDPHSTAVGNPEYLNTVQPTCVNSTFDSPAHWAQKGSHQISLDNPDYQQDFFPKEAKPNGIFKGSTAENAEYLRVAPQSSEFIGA
The target in test [12] is Microtubule-associated serine/threonine-protein kinase 1 (Homo sapiens) (UniProt Q9Y2H9). The test can be described thus: Binding affinity to wild-type human partial length MAST1 (S346 to V730 residues) expressed in mammalian expression system assessed as residual binding level at 1 uM by Kinomescan method relative to control.
Test [13] deals with Hepatocyte growth factor receptor (Homo sapiens) (UniProt P08581). The test can be described thus: Binding affinity to wild-type human partial length MET (D1010 to S1367 residues) expressed in bacterial expression system assessed as residual binding level at 1 uM by Kinomescan method relative to control.
Chain of Hepatocyte growth factor receptor (Homo sapiens) (P08581 whole entry, the tested form may be a part): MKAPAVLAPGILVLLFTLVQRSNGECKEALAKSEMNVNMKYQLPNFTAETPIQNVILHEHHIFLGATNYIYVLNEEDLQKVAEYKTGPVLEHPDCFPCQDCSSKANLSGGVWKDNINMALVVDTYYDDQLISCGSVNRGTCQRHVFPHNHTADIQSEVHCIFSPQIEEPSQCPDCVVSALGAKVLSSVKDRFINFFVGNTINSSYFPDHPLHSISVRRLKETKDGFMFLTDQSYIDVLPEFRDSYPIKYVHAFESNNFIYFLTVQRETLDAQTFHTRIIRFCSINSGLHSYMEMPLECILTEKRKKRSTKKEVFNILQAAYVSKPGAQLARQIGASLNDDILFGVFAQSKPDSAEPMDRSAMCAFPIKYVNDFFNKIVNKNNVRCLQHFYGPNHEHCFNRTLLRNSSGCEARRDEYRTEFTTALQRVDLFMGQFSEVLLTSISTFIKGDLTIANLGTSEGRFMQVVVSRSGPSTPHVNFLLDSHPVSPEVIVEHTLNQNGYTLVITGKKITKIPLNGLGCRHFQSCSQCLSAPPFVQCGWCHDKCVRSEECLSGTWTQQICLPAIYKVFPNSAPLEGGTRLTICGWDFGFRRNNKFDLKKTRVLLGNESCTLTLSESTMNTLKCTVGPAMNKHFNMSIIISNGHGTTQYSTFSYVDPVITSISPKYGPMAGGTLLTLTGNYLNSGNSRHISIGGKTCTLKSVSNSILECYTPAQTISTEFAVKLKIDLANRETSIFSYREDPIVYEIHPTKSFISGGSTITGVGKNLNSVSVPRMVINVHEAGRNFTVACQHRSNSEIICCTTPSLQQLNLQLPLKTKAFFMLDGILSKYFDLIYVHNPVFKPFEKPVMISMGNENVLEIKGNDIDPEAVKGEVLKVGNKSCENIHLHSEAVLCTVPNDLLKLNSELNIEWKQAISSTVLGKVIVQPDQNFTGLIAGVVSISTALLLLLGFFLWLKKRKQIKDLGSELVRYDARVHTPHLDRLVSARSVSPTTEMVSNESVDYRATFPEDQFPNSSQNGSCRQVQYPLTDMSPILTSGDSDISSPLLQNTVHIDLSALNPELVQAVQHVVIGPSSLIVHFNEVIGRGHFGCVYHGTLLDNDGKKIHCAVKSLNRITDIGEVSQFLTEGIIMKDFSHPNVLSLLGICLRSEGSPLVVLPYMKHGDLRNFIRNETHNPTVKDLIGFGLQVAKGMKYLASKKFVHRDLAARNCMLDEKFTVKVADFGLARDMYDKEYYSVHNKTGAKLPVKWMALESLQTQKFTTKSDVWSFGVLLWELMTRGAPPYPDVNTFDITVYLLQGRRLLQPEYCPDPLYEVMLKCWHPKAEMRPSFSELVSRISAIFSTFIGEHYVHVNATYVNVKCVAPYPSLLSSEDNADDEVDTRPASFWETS
For test [14], the target named is Focal adhesion kinase 1 (Homo sapiens) (UniProt Q05397). The test can be described thus: Binding affinity to wild-type human partial length FAK (D402 to R696 residues) expressed in bacterial expression system assessed as residual binding level at 1 uM by Kinomescan method relative to control.
For test [15], the target named is Platelet-derived growth factor receptor alpha (Homo sapiens) (UniProt P16234). The test can be described thus: Binding affinity to wild-type human partial length PDGFRA (V575 to D1002 residues) expressed in mammalian expression system assessed as residual binding level at 1 uM by Kinomescan method relative to control.
For test [16], the target named is Serine/threonine-protein kinase PLK1 (Homo sapiens) (UniProt P53350). The test can be described thus: Binding affinity to wild-type human partial length PLK1 (A33 to F325 residues) expressed in mammalian expression system assessed as residual binding level at 1 uM by Kinomescan method relative to control.
Test [17] has as its target Tyrosine-protein kinase ABL1 (Homo sapiens) (UniProt P00519). The test can be described thus: Binding affinity to wild-type human non-phosphorylated ABL1 (S229 to K512 residues) expressed in mammalian expression system assessed as residual binding level at 1 uM by Kinomescan method relative to control.
For test [18], the target named is Inhibitor of nuclear factor kappa-B kinase subunit alpha (Homo sapiens) (UniProt O15111). The test can be described thus: Binding affinity to wild-type human full length IKK-alpha (M1 to E745 residues) expressed in mammalian expression system assessed as residual binding level at 1 uM by Kinomescan method relative to control.
Test [19] has as its target Activin receptor type-1B (Homo sapiens) (UniProt P36896). The test can be described thus: Binding affinity to wild-type human ACVR1B (S187 to I505 residues) expressed in bacterial expression system assessed as residual binding level at 1 uM by Kinomescan method relative to control.
The target of test [20] is Mitogen-activated protein kinase kinase kinase kinase 3 (Homo sapiens) (UniProt Q8IVH8). The test can be described thus: Binding affinity to wild-type human partial length MAP4K3 (M1 to D301 residues) expressed in bacterial expression system assessed as residual binding level at 1 uM by Kinomescan method relative to control.
In test [21] the target is Epidermal growth factor receptor (Homo sapiens) (UniProt P00533). The test can be described thus: Binding affinity to wild-type human partial length EGFR (R669 to V1011 residues) expressed in bacterial expression system assessed as residual binding level at 1 uM by Kinomescan method relative to control.
Test [22] has as its system Epidermal growth factor receptor (Homo sapiens), P00533 [UNDEFINED MUTATION]. The test can be described thus: Binding affinity to human partial length EGFR L747-S752del/P753S mutant expressed in bacterial expression system assessed as residual binding level at 1 uM by Kinomescan method relative to control.
Test [23] relates to eIF-2-alpha kinase GCN2 (Homo sapiens), Q9P2K8 [S808G]. The test can be described thus: Binding affinity to wild-type human partial length GCN2 kinase domain 2 (R585 to T1018 residues) S808G mutant expressed in bacterial expression system assessed as residual binding level at 1 uM by Kinomescan method relative to control.
For test [24], the target named is Membrane-associated tyrosine- and threonine-specific cdc2-inhibitory kinase (Homo sapiens) (UniProt Q99640). The test can be described thus: Binding affinity to wild-type human partial length PKMYT1 (A88 to G366 residues) expressed in bacterial expression system assessed as residual binding level at 1 uM by Kinomescan method relative to control.

On to `CC(C)Nc1sc(C(=O)c2ccc(Cl)s2)c(N)c1C#N`, for which the Activity in [1] amounted to 93%; in [2], 90%; in test [3], 69%; in test [4] it was 68%; in test [5], 95%; in test [6] it was 100%. The Activity turned out to be 76% in test [7]; 70% in test [8]; 100% in [9]; 74% in test [10]; 75% in test [11]; 100% in test [12]. Further, the Activity in test [13] was 68%; in test [14] it was 74%; in test [15] it was 82%; in [16], 100%; in [17] it was 100%; in test [18], 100%. Also, the Activity in test [19] amounted to 82%; in test [20], 59%; in test [21], 89%; in test [22], 82%; in test [23], 45%; in test [24] it was 78%.
